Measured values as given in US6355616B1, “Derivative compounds derived from or based on bactericidal/permeability-increasing protein” (priority 1999, dated 2002).

What was measured:
[1] = test system: Candida albicans designated CA-1, Strain SLU-1; type: cell-based; conditions: C. albicans SLU1; 24 hours at 37° C.; OD 595 nm below 0.1
Protocol: In each broth microdilution assay screening procedure, a colony of Candida albicans designated CA-1, Strain SLU-1 that was received from the laboratories of G. Matuschak and A. Lechner, St. Louis University Hospital, St. Louis, Mo., where the strain was maintained, was inoculated into a tube containing 5 mL Sabouraud Dextrose broth (2% dextrose, 1% neopeptone) and incubated at 37° C. with shaking. The overnight culture was diluted 1:50 into 5 ml of fresh broth and incubated for 3 hours at 37° C. to exponential phase growth. Organisms were pelleted by centrifugation in a Beckman J-6M centrifuge for 5 minutes at 3000 rpm (1500×g) and the pellets were resuspended in 5 mL phosphate buffered saline (PBS) and the optical density (OD) at 570 nm was determined. On the basis of the determination that one OD unit equals 3×10^7 colony forming units/mL (CFU/mL), yeast cells were diluted to 5×10^3 CFU/mL in Sabouraud Dextrose broth (SBD).
Derivatized peptide sequences based on Domain III of BPI to be screened which were originally constituted in Dulbecco's-PBS, were two-fold serially diluted in SDB starting from a concentration of 128 μg/mL. Equal volumes (100 μL) of yeast suspension as prepared above and derivatized peptide solution were added to wells of a 96-well sterile, flat bottom, non-pyrogenic tissue culture microtiter plate (Costar, Cambridge, Mass.) to reach a final volume of 200 μL/well. The plate was incubated on a shaker at 37° C. for 24 hours. All assays were performed in triplicate. Following the incubation period, plates were read in an ELISA plate reader at 595 nm wavelength to determine the minimum inhibitory concentration (MIC), i.e., the lowest concentration required to reduce the optical density at 595 nm to below 0.1 OD.

Candida albicans SLU-1 = experiment: Radial diffusion assay; type: cell-based; conditions: 30 mm^2 area of growth inhibition, calculated by PROBIT analysis
Protocol: In the radial diffusion assay procedures, the CA-1 cultures and derivatized peptide solutions were prepared as in the broth microdilution assay procedure described above, i.e., CA-1 was grown to exponential phase in SDB. Ten (10) mL of molten underlayer agarose comprising 3% Sabouraud Dextrose broth, 1% agarose (Pharmacia, Piscataway, N.J.), 0.02% Tween 20, and 10 mM sodium phosphate at pH 7.4, was added to polystyrene tubes and maintained in a 56° C. water bath until the addition of yeast. Tubes were cooled to approximately 45° C., yeast were added to give a final concentration of 1×10^6 CFU/mL, and the tubes were mixed again by inverting. The contents were poured into leveled, square petri dishes and distributed evenly. […] A series of wells were punched into the hardened agarose using a sterile 3 mm punch attached to a vacuum apparatus to achieve a uniform, 3 mm diameter well.
Derivatized peptide sequences to be assayed were 2-fold serially diluted in 10 mM Dulbecco's PBS (D-PBS) starting from a concentration of approximately […]. Five μL of each dilution were added to each well and the plates were incubated at 37° C. for 3 hours to allow for complete diffusion of the test compounds. An overlayer of 10 mL of molten agarose comprising 6% Sabouraud Dextrose broth, 1% agarose, and 10 mM sodium phosphate, pH 7.4, (at approximately 45° C.) was then added and plates were incubated overnight at 37° C. Following this overnight incubation, a dilute Coomassie solution was poured into the plates and allowed to stain for 24 hours to enhance visualization of the zones.
Clear zones of growth inhibition around each well were measured with calipers. The actual area of growth inhibition (mm^2) was calculated by subtracting the area of the well. Table II below sets out the results of the radial diffusion assays for a series of tested peptide-based constructs in terms of the number of picomoles (pmol) of compound required to establish a 30 mm^2 area of growth inhibition of Candida albicans SLU-1 calculated by PROBIT analysis (e.g., calculated from regression of the linear portion of log-concentration dose-response curve, log pmol/well vs. net area of inhibition).

Candida albicans, SLU-1 = experiment: 28-day comparative survival efficacy study in mice systemically infected with Candida albicans; type: in vivo, male DBA/2 mice; conditions: mice infected iv with C. albicans SLU-1; two doses less than 5 mg/kg; initial experiments (p>0.5)
Protocol: Derivatized peptide-based constructs are tested for activity upon oral administration (oral activity) in a 28-day comparative survival efficacy study in mice systemically infected with Candida albicans. Specifically, male DBA/2 mice (Charles River Laboratories) six weeks of age are dosed with 7.9×10^4 Candida albicans, SLU-1 in 100 μL intravenously via the tail vein in a single dosage on day zero (0). However, other routes of administration, including intraperitoneal (ip) and subcutaneous (sc) routes may be administered. Amphotericin B will provide complete protection at 0.5 mg/kg qod (100% survival). Mortality data will be subjected to Kaplan-Meier survival analysis. All treatment groups may be considered statistically significant vs. saline at p values <0.05.
Treatment begins immediately thereafter with 400 μL oral gavage of either 0.5% dextrose, or derivative compound in 0.5% dextrose at various dosage levels (e.g., 10 mg/kg or 20 mg/kg) according to a prescribed dosing regimen (e.g. every other day for a total of eight times). Amphotericin B (Fungizone®) is administered intravenously at 0.5 mg/kg as a positive control every other day for a total of eight times. Twice-day monitoring (once daily on weekends and holidays) for mortality is performed. The animals treated with antiflngal derivative compound show improvement in mortality compared with the dextrose-treated controls, preferably statistically significant improvement (p-value of […]).

## CC[C@@H](C)[C@@H](NC(=O)[C@@H](CC(C)C)NC(=O)[C@@H](Cc1c[nH]c2ccccc12)NC(=O)[C@@H](CCCCN)NC(=O)c1ccccc1O)C(=O)N[C@H](CCC(N)=O)C(=O)N[C@H](CC(C)C)C(=O)N[C@H](Cc1ccccc1)C(=O)N[C@H](Cc1c[nH]cn1)C(=O)N[C@H](CCCCN)C(=O)N[C@H](CCCCN)C(N)=O [XMP.560]
[1]
  Broth Microdilution (MIC values in μg/mL C. albicans SLU1): 2 µg/mL
Candida albicans SLU-1
  Radial Diffusion (pmol to achieve 30 mm^2 zone C. albicans SLU1): 451 pmol
Candida albicans, SLU-1
  improvement in mortality compared with dextrose-treated controls: did not exhibit statistically significant improvement
